Measurements as given in the supplement of paper PMC10307832.

Legend:
Assay in all cases: relative viability (nuclei count vs DMSO), 5 days (fraction); higher = more cells survive
Carfilzomib + Foretinib = compound: CC(C)C[C@H](NC(=O)[C@H](CCc1ccccc1)NC(=O)CN1CCOCC1)C(=O)N[C@@H](Cc1ccccc1)C(=O)N[C@@H](CC(C)C)C(=O)[C@@]1(C)CO1 [Carfilzomib] + COc1cc2c(Oc3ccc(NC(=O)C4(C(=O)Nc5ccc(F)cc5)CC4)cc3F)ccnc2cc1OCCCN1CCOCC1 [Foretinib] (partner 0.25 µM)
Summary of the method: (§1)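 After 5 days of treatment, lung cancer cells in 1536-well plates were fixed and stained in a single step (final 0.05% Triton X-100, 1% formaldehyde, 1 ug/ml Hoechst) and their nuclei counted on 4× images. Treatment had been applied by pin tool the day after seeding as one drug alone or as a fixed anchor-drug dose with five library-drug doses (not always all listed) in √10 steps. Relative viability is the nuclei count of treated wells divided by that of vehicle wells, and values are medians of duplicate plates.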

Carfilzomib + Pictilisib = compound: CC(C)C[C@H](NC(=O)[C@H](CCc1ccccc1)NC(=O)CN1CCOCC1)C(=O)N[C@@H](Cc1ccccc1)C(=O)N[C@@H](CC(C)C)C(=O)[C@@]1(C)CO1 [Carfilzomib] + CS(=O)(=O)N1CCN(Cc2cc3nc(-c4cccc5[nH]ncc45)nc(N4CCOCC4)c3s2)CC1 [Pictilisib] (partner 1 µM)
Summary of the method: as §1

Crizotinib + Navitoclax = compound: C[C@@H](Oc1cc(-c2cnn(C3CCNCC3)c2)cnc1N)c1c(Cl)ccc(F)c1Cl [Crizotinib] + CC1(C)CCC(c2ccc(Cl)cc2)=C(CN2CCN(c3ccc(C(=O)NS(=O)(=O)c4ccc(N[C@H](CCN5CCOCC5)CSc5ccccc5)c(S(=O)(=O)C(F)(F)F)c4)cc3)CC2)C1 [Navitoclax] (partner 0.5 µM)
Summary of the method: as §1

Crizotinib + Foretinib = compound: C[C@@H](Oc1cc(-c2cnn(C3CCNCC3)c2)cnc1N)c1c(Cl)ccc(F)c1Cl [Crizotinib] + COc1cc2c(Oc3ccc(NC(=O)C4(C(=O)Nc5ccc(F)cc5)CC4)cc3F)ccnc2cc1OCCCN1CCOCC1 [Foretinib] (partner 0.25 µM)
Summary of the method: as §1

Cell Line | relative viability (Carfilzomib + Foretinib; first compound 0.001 µM) | relative viability (Carfilzomib + Foretinib; first compound 0.003162 µM) | relative viability (Carfilzomib + Foretinib; first compound 0.01 µM) | relative viability (Carfilzomib + Foretinib; first compound 0.03162 µM) | relative viability (Carfilzomib + Foretinib; first compound 0.1 µM) | relative viability (Carfilzomib + Pictilisib; first compound 0.001 µM) | relative viability (Carfilzomib + Pictilisib; first compound 0.003162 µM) | relative viability (Carfilzomib + Pictilisib; first compound 0.01 µM) | relative viability (Carfilzomib + Pictilisib; first compound 0.03162 µM) | relative viability (Carfilzomib + Pictilisib; first compound 0.1 µM) | relative viability (Crizotinib + Navitoclax; first compound 0.01 µM) | relative viability (Crizotinib + Navitoclax; first compound 0.03162 µM) | relative viability (Crizotinib + Navitoclax; first compound 0.1 µM) | relative viability (Crizotinib + Navitoclax; first compound 1 µM) | relative viability (Crizotinib + Foretinib; first compound 0.01 µM) | relative viability (Crizotinib + Foretinib; first compound 0.03162 µM) | relative viability (Crizotinib + Foretinib; first compound 0.1 µM) | relative viability (Crizotinib + Foretinib; first compound 1 µM) | relative viability (Crizotinib + Navitoclax; first compound 0.3162 µM) | relative viability (Crizotinib + Foretinib; first compound 0.3162 µM)
NCI-H1915 | 1.09 | 1.09 | 1.05 | 1.04 | 0.203 | 0.973 | 1 | 0.8 | 0.572 | 0.123 | 0.694 | 0.782 | 0.818 | 0.801 | 1 | 1.1 | 1.07 | 1.08 |  | 
NCI-H1944 | 0.932 | 0.955 | 0.949 | 0.931 | 0.337 | 0.353 | 0.344 | 0.322 | 0.3 | 0.247 | 1.01 | 0.995 | 1 | 1.05 | 0.823 | 0.877 | 0.847 | 0.862 | 1.03 | 0.884
NCI-H1975 |  | 0.859 | 0.621 | 0.0974 | 0.104 | 0.284 | 0.301 | 0.219 | 0.0929 | 0.101 | 0.965 | 1.06 | 1.03 | 1.06 | 0.941 | 1.03 | 0.902 | 0.975 | 1.26 | 0.962
NCI-H1993 | 0.798 | 0.865 | 0.81 | 0.778 | 0.444 | 0.756 | 0.771 | 0.717 | 0.648 | 0.61 | 0.769 | 0.897 | 0.669 | 0.805 | 0.848 | 0.9 | 0.741 | 0.82 | 0.831 | 0.827
NCI-H2009 | 1.25 | 1.26 | 1.21 | 0.355 | 0.0701 | 0.859 | 1.07 | 0.753 | 0.126 | 0.0415 | 1.1 | 1.16 | 1.17 | 1.22 | 1.21 | 1.17 | 1.13 | 1.23 | 1.21 | 1.19
NCI-H2023 | 0.957 | 0.896 | 0.894 | 0.948 | 0.0777 | 0.213 | 0.257 | 0.263 | 0.156 | 0.0927 | 0.98 | 0.985 | 0.994 |  | 0.745 | 0.799 | 0.787 | 0.939 | 0.932 | 0.848
NCI-H2085 | 0.909 | 0.925 | 0.829 | 0.249 | 0.226 | 0.443 | 0.45 | 0.48 | 0.306 | 0.269 | 1.02 | 1.09 | 1.03 | 1.2 | 0.822 | 0.809 | 0.906 | 0.987 | 1.07 | 
